Target: T1, (UniProt A0A221C6W1)
T1 construct: gene UGT201D3; recombinant pET-28a-UGT201D3q, 15 N-terminal hydrophobic amino acids removed, expressed in E. coli BL21 (DE3), Ni-NTA purified
Assay: inhibition of α-naphthol glycosylation by the purified recombinant enzyme, Dixon plot (IC50 […]); HPLC depletion of abamectin
Type: biochemical, Tetranychus cinnabarinus

T1 sequence (A0A221C6W1 16-460 limits assumed): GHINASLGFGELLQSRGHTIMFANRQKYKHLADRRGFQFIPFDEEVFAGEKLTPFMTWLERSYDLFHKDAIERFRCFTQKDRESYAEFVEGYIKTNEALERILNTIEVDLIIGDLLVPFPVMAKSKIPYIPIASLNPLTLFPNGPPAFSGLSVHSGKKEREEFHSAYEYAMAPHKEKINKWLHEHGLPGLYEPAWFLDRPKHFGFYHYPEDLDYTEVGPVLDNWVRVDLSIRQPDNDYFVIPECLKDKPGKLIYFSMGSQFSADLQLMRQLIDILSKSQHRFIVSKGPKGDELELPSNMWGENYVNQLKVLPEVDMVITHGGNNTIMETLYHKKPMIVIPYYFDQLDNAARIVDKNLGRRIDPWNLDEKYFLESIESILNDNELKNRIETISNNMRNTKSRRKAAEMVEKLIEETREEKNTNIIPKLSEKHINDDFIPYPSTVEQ

CC[C@H](C)[C@H]1O[C@]2(C=C[C@@H]1C)C[C@@H]1C[C@@H](C/C=C(\C)[C@@H](O[C@H]3C[C@H](OC)[C@@H](O[C@H]4C[C@H](OC)[C@@H](O)[C@H](C)O4)[C@H](C)O3)[C@@H](C)/C=C/C=C3\CO[C@@H]4[C@H](O)C(C)=C[C@@H](C(=O)O1)[C@]34O)O2.CO[C@H]1C[C@H](O[C@H]2[C@H](C)O[C@@H](O[C@@H]3/C(C)=C/C[C@@H]4C[C@@H](C[C@]5(C=C[C@H](C)[C@@H](C(C)C)O5)O4)OC(=O)[C@@H]4C=C(C)[C@@H](O)[C@H]5OC/C(=C\C=C\[C@@H]3C)[C@]54O)C[C@@H]2OC)O[C@@H](C)[C@@H]1O [abamectin] showed a Ki of 9.9 ± 6.2 µM.
